Legend:
human recombinant PLK4 = human recombinant PLK4 (Homo sapiens (Human), UniProt O00444); test: PLK4 Biochemical Assay (ADP-Glo); settings: 0.5 nM PLK4, 8.0 µM ATP, 4.7 µM MBP, 6 hours at RT
Procedure, shortened: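 Recombinant human PLK4 (added at 1.0 nM) was preincubated 15 min at RT with compound in 50 mM HEPES pH 7.5, 10 mM MgCl2, 1 mM EGTA, 1 mM DTT, 0.01% Brij-35, 0.01% BSA. ADP formed was detected by ADP-Glo luminescence (40 min ATP depletion, 30 min detection). IC50 came from a four-parameter fit.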

[1] = target: human recombinant Aurora A (Homo sapiens (Human), UniProt O14965); test: Aurora A Kinase Biochemical Assay (ADP-Glo); settings: ratio of Aurora A IC50 to PLK4 IC50 (selectivity)
CHP-134 cells = test: CHP134 CellTiter-Glo (CTG) Assay; assay type: cell-based; settings: 5 days, viable cells by CellTiter-Glo
Description: Cells were seeded (200 cells/well) in 384-well plates for 16 hours. On day two, nine serial 1:3 compound dilutions were made in DMSO in a 96-well plate. The compounds were then further diluted into growth media using a BRAVO robot (Agilent, Santa Clara, CA). The diluted compounds were then added to quadruplicate wells in the 384-well cell plate and incubated at 37° C. and 5% CO2. After 5 days, relative numbers of viable cells were measured by luminescence using CellTiter-Glo® (Promega) according to the manufacturer’s instructions and read on a SPARK Multimode Microplate Reader (Tecan, Mannedorf Switzerland). The IC50 calculations for the values reported in Table 2 were carried out using Prism 6.0 software (GraphPad, San Diego).

[2] = target: human recombinant Aurora B (Homo sapiens (Human), UniProt Q96GD4); test: Aurora B Kinase Biochemical Assay (ADP-Glo); settings: ratio of Aurora B IC50 to PLK4 IC50 (selectivity)
Procedure, shortened: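 Recombinant human Aurora B (20 nM in pH 7.5 HEPES buffer with MgCl2, EGTA, DTT, Brij-35, BSA) preincubated with compound 15 min at RT. ADP formed quantified by ADP-Glo luminescence after ATP depletion (40 min) and detection (30 min). IC50 from four-parameter non-linear regression.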

Sequence of human recombinant PLK4 (O00444 whole entry): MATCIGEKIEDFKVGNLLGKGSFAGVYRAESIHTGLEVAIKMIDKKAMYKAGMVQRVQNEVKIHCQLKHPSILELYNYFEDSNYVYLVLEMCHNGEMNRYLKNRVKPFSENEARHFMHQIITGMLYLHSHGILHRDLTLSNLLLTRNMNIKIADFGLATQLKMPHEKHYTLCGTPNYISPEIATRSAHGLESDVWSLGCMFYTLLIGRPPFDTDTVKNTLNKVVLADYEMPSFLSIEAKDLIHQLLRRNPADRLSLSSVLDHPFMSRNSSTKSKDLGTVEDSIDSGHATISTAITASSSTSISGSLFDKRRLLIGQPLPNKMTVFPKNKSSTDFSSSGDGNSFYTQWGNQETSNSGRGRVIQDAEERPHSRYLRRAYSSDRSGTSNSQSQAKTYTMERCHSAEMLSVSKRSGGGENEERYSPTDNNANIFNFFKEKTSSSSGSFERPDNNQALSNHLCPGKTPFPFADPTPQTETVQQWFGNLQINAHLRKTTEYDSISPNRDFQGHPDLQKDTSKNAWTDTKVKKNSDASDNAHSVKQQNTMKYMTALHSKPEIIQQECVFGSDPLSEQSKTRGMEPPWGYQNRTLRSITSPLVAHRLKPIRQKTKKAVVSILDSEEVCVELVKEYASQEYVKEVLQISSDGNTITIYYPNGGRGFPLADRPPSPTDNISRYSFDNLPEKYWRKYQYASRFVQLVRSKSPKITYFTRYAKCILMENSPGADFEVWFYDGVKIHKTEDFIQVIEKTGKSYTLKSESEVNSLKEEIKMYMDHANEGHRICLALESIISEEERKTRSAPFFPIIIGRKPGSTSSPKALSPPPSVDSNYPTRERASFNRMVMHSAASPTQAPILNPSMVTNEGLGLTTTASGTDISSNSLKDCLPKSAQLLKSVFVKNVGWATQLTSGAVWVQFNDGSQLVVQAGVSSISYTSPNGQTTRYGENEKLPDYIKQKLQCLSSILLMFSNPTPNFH
Sequence of human recombinant Aurora B (Q96GD4 whole entry): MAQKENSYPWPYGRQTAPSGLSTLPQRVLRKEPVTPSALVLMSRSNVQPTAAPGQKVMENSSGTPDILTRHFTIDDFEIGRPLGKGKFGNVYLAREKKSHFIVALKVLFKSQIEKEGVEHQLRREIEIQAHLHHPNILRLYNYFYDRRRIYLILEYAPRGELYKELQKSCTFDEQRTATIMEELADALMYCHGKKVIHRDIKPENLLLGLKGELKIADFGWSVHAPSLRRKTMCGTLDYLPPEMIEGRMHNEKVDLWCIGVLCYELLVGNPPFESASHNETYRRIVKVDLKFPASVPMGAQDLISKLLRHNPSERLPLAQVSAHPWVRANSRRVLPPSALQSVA
Sequence of human recombinant Aurora A (O14965 whole entry): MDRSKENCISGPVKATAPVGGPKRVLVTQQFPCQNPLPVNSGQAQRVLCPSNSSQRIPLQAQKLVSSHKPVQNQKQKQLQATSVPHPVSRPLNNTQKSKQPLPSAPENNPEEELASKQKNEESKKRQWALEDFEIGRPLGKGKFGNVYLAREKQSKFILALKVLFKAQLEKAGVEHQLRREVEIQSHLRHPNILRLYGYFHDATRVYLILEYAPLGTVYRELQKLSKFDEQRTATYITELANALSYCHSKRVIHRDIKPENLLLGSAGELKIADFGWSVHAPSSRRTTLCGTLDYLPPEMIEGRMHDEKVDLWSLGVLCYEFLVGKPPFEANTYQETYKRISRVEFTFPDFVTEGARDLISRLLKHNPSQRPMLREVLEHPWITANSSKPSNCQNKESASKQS

In the case of `CCOc1nc(S(=O)(=O)N(C)C)ccc1Nc1n[nH]c2cc([C@@H]3C[C@@]34C(=O)Nc3ccc(OC)cc34)ccc12` [Example 223, 6-ethoxy-5-({6-[(1R,2S)-5′-methoxy-2′-oxo-1′,2′-dihydrospiro[cyclopropane-1,3′-indol]-2-yl]-1H-indazol-3-yl}amino)-N,N-dimethylpyridine-2-sulfonamide], the IC50 (human recombinant PLK4) is reported as 2.3 nM, the “[Aurora A IC50 (nM)]/[PLK4 IC50 (nM)]” value [1] is reported as 1004.7743 and the IC50 (CHP-134 cells; Homo sapiens, CHP-134, 120 h) is reported as 163 nM. For the same molecule, the “[Aurora B IC50 (nM)]/[PLK4 IC50 (nM)]” value [2] was 445.3125.

For `COc1ccc2c(c1)[C@]1(C[C@H]1c1ccc3c(Nc4nc(N5CCCC5)ncc4OC)n[nH]c3c1)C(=O)N2` [Example 167, (1R,2S)-5′-methoxy-2-(3-{[5-methoxy-2-(pyrrolidin-1-yl)pyrimidin-4-yl)amino}-1H-indazol-6-yl)spiro[cyclopropano-1,3′-indol]-2′(1′H)-one], the IC50 (human recombinant PLK4) was 1.18 nM, the “[Aurora A IC50 (nM)]/[PLK4 IC50 (nM)]” value [1] was 295.5932 and the IC50 (CHP-134 cells; Homo sapiens, CHP-134, 120 h) was 212 nM. For the same molecule, the “[Aurora B IC50 (nM)]/[PLK4 IC50 (nM)]” value [2] was 916.9492.

`COc1ccc2c(c1)[C@]1(C[C@H]1c1ccc3c(Nc4nc(C)nc(N5C[C@@H](C)O[C@@H](C)C5)c4OC)n[nH]c3c1)C(=O)N2` [Example 67, (1R,2S)-2-[3-({6-[(2R,6S)-2,6-dimethylmorpholin-4-yl]-5-methoxy-2-methylpyrimidin-4-yl}amino)-1H-indazol-6-yl]-5′-methoxyspiro[cyclopropane-1,3′-indol]-2′(1′H)-one] was tested, and the IC50 (human recombinant PLK4) was 1.34 nM, the “[Aurora A IC50 (nM)]/[PLK4 IC50 (nM)]” value [1] was 4976.155 and the IC50 (CHP-134 cells; Homo sapiens, CHP-134, 120 h) was 4390 nM. The “[Aurora B IC50 (nM)]/[PLK4 IC50 (nM)]” value [2] was 499.9255.

With `COc1ccc2c(c1)[C@]1(C[C@H]1c1ccc3c(Nc4ncc(S(=O)(=O)C(C)C)cc4OC)n[nH]c3c1)C(=O)N2` [Example 248, (1R,2S)-5′-Methoxy-2-(3-{[3-methoxy-5-(propane-2-sulfonyl)pyridin-2-yl]amino}-1H-indazol-6-yl)spiro[cyclopropane-1,3′-indol]-2′(1′H)-one] the IC50 (human recombinant PLK4) was 1.24 nM, the “[Aurora A IC50 (nM)]/[PLK4 IC50 (nM)]” value [1] was 683.4543 and the IC50 (CHP-134 cells; Homo sapiens, CHP-134, 120 h) was 120 nM. The “[Aurora B IC50 (nM)]/[PLK4 IC50 (nM)]” value [2] was 206.5375.

For `COc1ccc2c(c1)[C@]1(C[C@H]1c1ccc3c(Nc4cc(C(=O)N5CCOCC5)ccc4OC)n[nH]c3c1)C(=O)N2` [Example 180, (1R,2S)-5′-methoxy-2-{3-[2-methoxy-5-(morpholine-4-carbonyl)anilino]-1H-indazol-6-yl}spiro[cyclopropane-1,3′-indol]-2′(1′H)-one], the IC50 (human recombinant PLK4) was 2.85 nM, the “[Aurora A IC50 (nM)]/[PLK4 IC50 (nM)]” value [1] was 5455.5011 and the IC50 (CHP-134 cells; Homo sapiens, CHP-134, 120 h) was 741 nM. For the same molecule, the “[Aurora B IC50 (nM)]/[PLK4 IC50 (nM)]” value [2] was 1996.8465.

`COc1ccc2c(c1)[C@]1(C[C@H]1c1ccc3c(Nc4cc(C)ccc4OC)n[nH]c3c1)C(=O)N2` [Example 148, (1R,2S)-5′-methoxy-2-[3-(2-methoxy-5-methylanilino)-1H-indazol-6-yl]spiro[cyclopropane-1,3′-indol]-2′(1′H)-one] was tested, and the IC50 (human recombinant PLK4) was 6.87 nM, the “[Aurora A IC50 (nM)]/[PLK4 IC50 (nM)]” value [1] was 397.3799 and the IC50 (CHP-134 cells; Homo sapiens, CHP-134, 120 h) was 3570 nM. The “[Aurora B IC50 (nM)]/[PLK4 IC50 (nM)]” value [2] was 338.8646.

With `COc1ccc2c(c1)[C@]1(C[C@H]1c1ccc3c(Nc4nc(C)ncc4OC)n[nH]c3c1F)C(=O)N2` [Example 123, (1R,2R)-2-{7-fluoro-3-[(5-methoxy-2-methylpyrimidin-4-yl)amino]-1H-indazol-6-yl}-5′-methoxyspiro[cyclopropane-1,3′-indol]-2′(1′H)-one] the IC50 (human recombinant PLK4) was 4.8 nM, the “[Aurora A IC50 (nM)]/[PLK4 IC50 (nM)]” value [1] was 667.5698 and the IC50 (CHP-134 cells; Homo sapiens, CHP-134, 120 h) was 2110 nM. The “[Aurora B IC50 (nM)]/[PLK4 IC50 (nM)]” value [2] was 84.1.

`COc1ccc2c(c1)[C@]1(C[C@H]1c1ccc3c(Nc4nc(N(C)C)nc5c4CCC5)n[nH]c3c1)C(=O)N2` [Example 213, (1R,2S)-2-(3-{[2-(dimethylamino)-6,7-dihydro-5H-cyclopenta[d]pyrimidin-4-yl]amino}-1H-indazol-6-yl)-5′-methoxyspiro[cyclopropane-1,3′-indol]-2′(1′H)-one] was tested, and the IC50 (human recombinant PLK4) was 2.13 nM, the “[Aurora A IC50 (nM)]/[PLK4 IC50 (nM)]” value [1] was 92.2102 and the IC50 (CHP-134 cells; Homo sapiens, CHP-134, 120 h) was 190 nM. For the same molecule, the “[Aurora B IC50 (nM)]/[PLK4 IC50 (nM)]” value [2] was 225.3871.

With `COc1ccc2c(c1)[C@]1(C[C@H]1c1ccc3c(Nc4ncc(S(=O)(=O)N5CCOCC5)cc4OC)n[nH]c3c1)C(=O)N2` [Example 255] the IC50 (human recombinant PLK4) was 1.16 nM, the “[Aurora A IC50 (nM)]/[PLK4 IC50 (nM)]” value [1] was 840.1202 and the IC50 (CHP-134 cells; Homo sapiens, CHP-134, 120 h) was 380 nM. The “[Aurora B IC50 (nM)]/[PLK4 IC50 (nM)]” value [2] was 566.4948.

`COc1ccc2c(c1)[C@]1(C[C@H]1c1ccc3c(Nc4ncc(S(C)(=O)=O)nc4OC)n[nH]c3c1)C(=O)N2` [Example 242, (1R,2S)-2-(3-{[5-(methanesulfonyl)-3-methoxypyrazin-2-yl]amino}-1H-indazol-6-yl)-5′-methoxyspiro[cyclopropane-1,3′-indol]-2′(1′H)-one] was tested, and the IC50 (human recombinant PLK4) was 6.52 nM, the “[Aurora A IC50 (nM)]/[PLK4 IC50 (nM)]” value [1] was 307.7159 and the IC50 (CHP-134 cells; Homo sapiens, CHP-134, 120 h) was 5510 nM. For the same molecule, the “[Aurora B IC50 (nM)]/[PLK4 IC50 (nM)]” value [2] was 129.0381.

In the case of `COc1cnc(C)nc1Nc1n[nH]c2cc([C@@H]3C[C@@]34C(=O)Nc3ccc(C)cc34)ccc12` [Example 126, (1R,2S)-2-{3-[(5-methoxy-2-methylpyrimidin-4-yl)amino]-1H-indazol-6-yl}-5′-methylspiro[cyclopropane-1,3′-indol]-2′(1′H)-one], the IC50 (human recombinant PLK4) is reported as 9.01 nM, the “[Aurora A IC50 (nM)]/[PLK4 IC50 (nM)]” value [1] is reported as 66.2192 and the IC50 (CHP-134 cells; Homo sapiens, CHP-134, 120 h) is reported as 459 nM. For the same molecule, the “[Aurora B IC50 (nM)]/[PLK4 IC50 (nM)]” value [2] was 92.0568.

For `COc1ccc2c(c1)[C@]1(C[C@H]1c1ccc3c(Nc4nc(S(C)(=O)=O)ccc4OC)n[nH]c3c1)C(=O)N2` [Example 196, (1R,2S)-2-(3-{[6-(methanesulfonyl)-3-methoxypyridin-2-yl]amino}-1H-indazol-6-yl)-5′-methoxyspiro[cyclopropane-1,3′-indol]-2′(1′H)-one], the IC50 (human recombinant PLK4) was 3.32 nM, the “[Aurora A IC50 (nM)]/[PLK4 IC50 (nM)]” value [1] was 732.3689 and the IC50 (CHP-134 cells; Homo sapiens, CHP-134, 120 h) was 1670 nM. The “[Aurora B IC50 (nM)]/[PLK4 IC50 (nM)]” value [2] was 100.8137.

For `COc1ccc2c(c1)[C@]1(C[C@H]1c1ccc3c(Nc4ccc([S+](C)[O-])nc4OC)n[nH]c3c1)C(=O)N2` (single isomer, unassigned) [Example 240], the IC50 (human recombinant PLK4) was 2.18 nM, the “[Aurora A IC50 (nM)]/[PLK4 IC50 (nM)]” value [1] was 735.1996 and the IC50 (CHP-134 cells) was 422 nM. For the same molecule, the “[Aurora B IC50 (nM)]/[PLK4 IC50 (nM)]” value [2] was 102.4323.

In the case of `COc1ccc2c(c1)[C@]1(C[C@H]1c1ccc3c(Nc4ccc(C(=O)N(C)C)nc4Cl)n[nH]c3c1)C(=O)N2` [Example 251, 6-chloro-5-({6-[(1R,2S)-5′-methoxy-2′-oxo-1′,2′-dihydrospiro[cyclopropane-1,3′-indol]-2-yl]-1H-indazol-3-yl}amino)-N,N-dimethylpyridine-2-carboxamide], the IC50 (human recombinant PLK4) is reported as 1.33 nM, the “[Aurora A IC50 (nM)]/[PLK4 IC50 (nM)]” value [1] is reported as 1734.2342 and the IC50 (CHP-134 cells; Homo sapiens, CHP-134, 120 h) is reported as 287 nM. The “[Aurora B IC50 (nM)]/[PLK4 IC50 (nM)]” value [2] was 268.6936.

`COc1ccc2c(c1)[C@]1(C[C@H]1c1ccc3c(Nc4nc(OC)ncc4OC)n[nH]c3c1)C(=O)N2` [Example 156, (1R,2S)-2-{3-[(2,5-dimethoxypyrimidin-4-yl)amino]-1H-indazol-6-yl}-5′-methoxyspiro[cyclopropane-1,3′-indol]-2′(1′H)-one] showed an IC50 (CHP-134 cells; Homo sapiens, CHP-134, 120 h) of 494 nM.

For `COc1ccc2c(c1)[C@]1(C[C@H]1c1ccc3c(Nc4ncnc(N5CCCCC5)c4OC)n[nH]c3c1)C(=O)N2` [Example 12, (1R.2S)-5′-Methoxy-2-(3-{[5-methoxy-6-(piperidin-1-yl)pyrimidin-4-yl]amino}-1H-indazol-6-yl)spiro[cyclopropane-1,3′-indol]-2′(1′H)-one], the IC50 (human recombinant PLK4) was 4.96 nM and the IC50 (CHP-134 cells; Homo sapiens, CHP-134, 120 h) was 2030 nM.

`COc1ccc2c(c1)[C@]1(CC1c1ccc3c(/C=C/c4ccc(CN5C[C@@H](C)O[C@@H](C)C5)cc4)n[nH]c3c1)C(=O)N2` (some centres unmarked) [CFI-400495, reference compound] was tested, and the IC50 (CHP-134 cells; Homo sapiens, CHP-134, 120 h) was 9.08 nM.

With `COc1ccc2c(c1)[C@]1(C[C@H]1c1ccc3c(Nc4cc(N5CCN(C)C5=O)cnc4OC)n[nH]c3c1)C(=O)N2` [Example 221, (1R,2S)-5′-methoxy-2-(3-{[2-methoxy-5-(3-methyl-2-oxoimidazolidin-1-yl)pyridin-3-yl]amino}-1H-indazol-6-yl)spiro[cyclopropane-1,3′-indol]-2′(1′H)-one] the IC50 (CHP-134 cells; Homo sapiens, CHP-134, 120 h) was 849 nM.

For `COc1ccc2c(c1)[C@]1(C[C@H]1c1ccc3c(Nc4cc(S(=O)(=O)C5CCOCC5)ccc4OC)n[nH]c3c1)C(=O)N2` [Example 224, (1R,2S)-5′-methoxy-2-{3-[2-methoxy-5-(oxane-4-sulfonyl)anilino]-1H-indazol-6-yl}spiro[cyclopropane-1,3′-indol]-2′(1′H)-one], the IC50 (CHP-134 cells; Homo sapiens, CHP-134, 120 h) was 2020 nM.

With `COc1ccc2c(c1)[C@]1(C[C@H]1c1ccc3c(Nc4ncnc(N5CCC5)c4OC)n[nH]c3c1)C(=O)N2` [Example 42, (1R,2S)-2-(3-{[6-(azetidin-1-yl)-5-methoxypyrimidin-4-yl]amino}-1H-indazol-6-yl)-5′-methoxyspiro[cyclopropane-1,3′-indol]-2′(1′H)-one] the IC50 (human recombinant PLK4) was 36.2 nM, the “[Aurora A IC50 (nM)]/[PLK4 IC50 (nM)]” value [1] was 1053.808 and the “[Aurora B IC50 (nM)]/[PLK4 IC50 (nM)]” value [2] was 42.3.

Source: patent US20230365537A1, “POLO LIKE KINASE 4 INHIBITORS” (ORIC Pharmaceuticals, Inc., priority 2021, published 2023)
